Reference: patent US8722616B2, “Anti-HIV peptides and methods of use thereof” (priority 2009, dated 2014)
Converted amounts (≈) assume the structure as drawn. Non-standard residues stand in square brackets, D forms with d. Residues, ends and D or L forms follow the SMILES beside them. No end group written: not given here. Phg = N[C@H](C(=O)O)c1ccccc1

Key:
[1] = tested on: HIV-1IIIB; experiment: microbe, parasite or virus in culture
Method: (§1) Anti-HIV cytopathic effect inhibition assays were conducted as described (Buckheit et al. (1995) Antimicrob. Agents Chemother., 39:2718-2727). In brief, serially diluted peptides were added to a 96-well round bottom microtiter plate in triplicate. CEM-SS cells at a concentration of 2.5×10^3 cells per well and HIV-1IIIB at the appropriate pre-determined titer were sequentially added to the microtiter plate. The cultures were incubated at 5% CO2/37° C. for six days. Following the incubation, the microtiter plates were stained with XTT tetrazolium dye to evaluate the efficacy and toxicity of the test compound(s).
as §1, with “Cytopathic Effect (CPE) Inhibition Assay: The CPE assay was performed” for “Anti-HIV cytopathic effect inhibition assays were conducted”, “as previously” for “as”, “Briefly,” for “In brief,”, “compound was” for “peptides were”

[2] = tested on: CEM-SS cells; experiment: in vitro
Method: as §1
as §1, with “Cytopathic Effect (CPE) Inhibition Assay: The CPE assay was performed” for “Anti-HIV cytopathic effect inhibition assays were conducted”, “as previously” for “as”, “Briefly,” for “In brief,”, “compound was” for “peptides were”

[3] = tested on: E. coli K12
From the text: (§2) The frequently used residues identified in each kingdom may be applied to peptide design in different ways. First, new antimicrobial peptides can be designed based on ‘templates derived from naturally occurring antimicrobial peptides’. […] Second, new antimicrobial peptides can be designed by ‘combining database-derived peptide motifs’, consisting of frequently used residues. Using the motifs consisting of only residues Gly, Leu and Lys, a second peptide was designed. […] Third, new peptides can be designed based on ‘amino acid percentages obtained from statistical analysis of antimicrobial peptides’ from a specific kingdom or peptide family. Thus, a third peptide was designed in three steps. (i) The amino acid composition for MULTI-18 was obtained by multiplying the percentage of each residue with the total number of residues (18 here) in the target peptide. […] (iii) Multiple peptides can be obtained by combining the above motifs. Only one peptide was designed by following the amphipathic pattern for helical peptides.

[4] = tested on: methicin-resistant Staphylococcus aureus (MRSA) USA-300
From the text: as §2

[5] = Cytotoxicity in the CPE assay (XTT, 50% reduction in cell viability); conditions: human
Method: as §1
as §1, with “Cytopathic Effect (CPE) Inhibition Assay: The CPE assay was performed” for “Anti-HIV cytopathic effect inhibition assays were conducted”, “as previously” for “as”, “Briefly,” for “In brief,”, “compound was” for “peptides were”

[6] = tested on: HIV; conditions: literature; cited from earlier work
[7] = Table 4, LL-37-derived peptides, CEM-SS cells
[8] = Table 5, BMAP-27-derived peptides, CEM-SS cells
[9] = >100 μg/ml defined as HIV inactive
[10] = Table 1, CEM-SS cells, HIV-1IIIB, six days, 50% inhibition of virus replication
[11] = read-out: TC50, Table 1, CEM-SS cells, six days, 50% reduction in cell viability

Molecule: GLKKLLGKLLKKLGKLLLK [GLK-19]
- EC50 ([1]; 1IIIB): > 47.5 µM
- CC50 [2]: 25.1 µM
- IC50 ([3]; K12): 10 µM
- IC50 ([4]; USA-300): 160 µM

Molecule: CC[C@@H](C)[C@@H](NC(=O)[C@H](CCCNC(=N)N)NC(=O)[C@H](CCC(N)=O)NC(=O)[C@@H](NC(=O)[C@@H](NC(=O)[C@H](CCCNC(=N)N)NC(=O)[C@H](CCCCN)NC(=O)[C@H](Cc1ccccc1)NC(=O)CN)[C@@H](C)CC)C(C)C)C(=O)N[C@@H](CCCCN)C(=O)N[C@@H](CC(=O)O)C(=O)N[C@@H](Cc1ccccc1)C(=O)N[C@@H](CC(C)C)C(=O)N[C@@H](CCCNC(=N)N)C(=O)N[C@@H](CC(N)=O)C(=O)N[C@@H](CC(C)C)C(=O)N[C@H](C(N)=O)C(C)C [GF-17d1]
- EC50 [1, 7]: > 47.5 µM
- CC50 at 6 days ([5]; CEM-SS cells): 22.7 µM

Molecule: GRFKRFRKPFKKLFKKIS-NH2 [BMAP-18P9]
- EC50 [1, 8]: 3.2 µM
- CC50 at 6 days [5]: 18.9 µM

Molecule: FLFPLITSFLSKVL [Ranatuerin 9, reference compound]
- EC50 ([1]; 1IIIB): 16.7 µM
- CC50 [5]: 34.6 µM

Molecule: CC[C@H](C)[C@H](NC(=O)[C@H](CCCNC(=N)N)NC(=O)[C@H](CCC(N)=O)NC(=O)[C@@H](NC(=O)[C@@H](NC(=O)[C@H](CCCNC(=N)N)NC(=O)[C@H](CCCCN)NC(=O)[C@H](Cc1ccccc1)NC(=O)CN)[C@@H](C)CC)C(C)C)C(=O)N[C@@H](CCCCN)C(=O)N[C@@H](CC(=O)O)C(=O)N[C@@H](Cc1ccccc1)C(=O)N[C@@H](CC(C)C)C(=O)N[C@@H](CCCNC(=N)N)C(=O)N[C@@H](CC(N)=O)C(=O)N[C@@H](CC(C)C)C(=O)N[C@H](C(N)=O)C(C)C [GF-17]
- CC50 [2]: 10.8 µM
- CC50 at 6 days [5]: 8.9 µM
- CC50 at 144 h ([5]; CEM-SS cells): 18.7 µg/mL (≈ 8.9 µM)

Molecule: GFNEIVQDIEDFLQNLV-NH2 [GF17-]
- EC50 ([1]; 1IIIB): > 25.1 µM
- CC50 [5]: > 25.1 µM

Molecule: SKEKIGKEFKRIVQRIKDFLR [SK-21]
- anti-HIV activity in words [1]: active against HIV
- EC50 [1, 9]: 28.5 µg/mL
- EC50 [1, 7]: 10.8 µM
- CC50 at 6 days ([5]; CEM-SS cells): 22.5 µM

Molecule: CC[C@H](C)[C@H](NC(=O)[C@H](CCCCN)NC(=O)[C@H](CCCCN)NC(=O)[C@H](Cc1ccccc1)NC(=O)[C@H](CC(C)C)NC(=O)[C@H](CCCCN)NC(=O)[C@H](CCCCN)NC(=O)[C@@H](NC(=O)[C@H](CCCCN)NC(=O)[C@H](CCCCN)NC(=O)[C@H](CCCNC(=N)N)NC(=O)[C@@H](NC(=O)[C@H](CCCNC(=N)N)NC(=O)[C@H](CCCCN)NC(=O)[C@H](Cc1ccccc1)NC(=O)[C@H](CCCNC(=N)N)NC(=O)CN)c1ccccc1)c1ccccc1)C(=O)N[C@@H](CO)C(N)=O [BMAP-18X6X10, GRFKRXRKKXKKLFKKIS] (H-GRFKR[Phg]RKK[Phg]KKLFKKIS-NH2)
- EC50 [1, 8]: 0.68 µM
- CC50 at 6 days ([5]; CEM-SS cells): 10.2 µM

Molecule: FFGKVLKLIRKIF-NH2 [Peptide D76]
- EC50 [1, 10]: 0.63 µM
- CC50 at 6 days [5]: 6.78 µM

Molecule: KKLLKKLKKLLK [KL-12]
- inactive against E. coli K12 until [3]: > 160 mM
- inactive against MRSA USA-300 until [4]: > 160 mM

Molecule: FRPALIVRTKGTRL [Hyposin-5, reference compound]
- EC50 ([1]; 1IIIB): > 61.4 µM
- CC50 [5]: > 61.4 µM

Molecule: Cc1cn([C@H]2C[C@H](N=[N+]=[N-])[C@@H](CO)O2)c(=O)[nH]c1=O [AZT, reference compound]
- EC50 ([1]; Human immunodeficiency virus 1): 0.007 µM
- EC50 ([1]; Human immunodeficiency virus 1, CEM-SS): 0.007 µM
- CC50 ([2]; human, 6 days): > 0.5 µM
- CC50 at 6 days [5]: > 0.5 µM

Molecule: LLGDLLRKSKEKIGKEFKRIVQRIKDFLRNLVPRTES [LL-37, reference compound]
- EC50 [1, 9]: 7.3 µg/mL
- EC50 [1, 7]: 1.6 µM
- CC50 at 6 days [5]: 18.4 µM

Molecule: FKRIVQRIKDFLR-NH2 [FK-13]
- EC50 [1, 9]: 5.9 µg/mL
- EC50 [1, 7]: 3.4 µM
- CC50 at 6 days [5]: 10.4 µM

Molecule: GIKEWKRIVQRIKDFLRNLV-NH2 [GI-20W17]
- EC50 [1, 7]: 7.4 µM
- CC50 at 6 days [5]: 23.6 µM

Molecule: KRIVQRIKDFLR-NH2 [KR-12]
- EC50 [1, 7]: > 63.5 µM
- CC50 at 6 days [5]: > 63.5 µM

Molecule: LLGDLLRKSKEKIGKEFKRIVQR-NH2 [LL-23]
- CC50 at 6 days [5]: > 35.4 µM

Molecule: CC[C@@H](C)[C@@H](NC(=O)[C@H](CCCNC(=N)N)NC(=O)[C@H](CCC(N)=O)NC(=O)[C@@H](NC(=O)[C@@H](NC(=O)[C@H](CCCNC(=N)N)NC(=O)[C@H](CCCCN)NC(=O)[C@H](Cc1ccccc1)NC(=O)CN)[C@@H](C)CC)C(C)C)C(=O)N[C@@H](CCCCN)C(=O)N[C@@H](CC(=O)O)C(=O)N[C@@H](Cc1ccccc1)C(=O)N[C@H](CC(C)C)C(=O)N[C@@H](CCCNC(=N)N)C(=O)N[C@@H](CC(N)=O)C(=O)N[C@@H](CC(C)C)C(=O)N[C@H](C(N)=O)C(C)C [GF-17d2]
- EC50 [1, 7]: > 47.5 µM
- CC50 at 6 days ([5]; CEM-SS cells): > 47.5 µM

Molecule: GRFKRIRKKLKKLFKKIS-NH2 [BMAP-18I6L10]
- EC50 [1, 8]: > 44 µM
- CC50 at 6 days [5]: 2.79 µM

Molecule: GIKQFKRIVQRIKDFLRNLV-NH2 [GI-20Q16]
- EC50 [1, 7]: 0.91 µM
- CC50 at 6 days [5]: 13.7 µM

Molecule: CC[C@H](C)[C@H](NC(=O)CN)C(=O)N[C@@H](CCCCN)C(=O)N[C@@H](CCC(=O)O)C(=O)N[C@H](C(=O)N[C@@H](CCCCN)C(=O)N[C@@H](CCCNC(=N)N)C(=O)N[C@H](C(=O)N[C@H](C(=O)N[C@@H](CCC(N)=O)C(=O)N[C@@H](CCCNC(=N)N)C(=O)N[C@H](C(=O)N[C@@H](CCCCN)C(=O)N[C@@H](CC(=O)O)C(=O)N[C@@H](Cc1ccccc1)C(=O)N[C@@H](CC(C)C)C(=O)N[C@@H](CCCNC(=N)N)C(=O)N[C@@H](CC(N)=O)C(=O)N[C@@H](CC(C)C)C(=O)N[C@H](C(N)=O)C(C)C)[C@@H](C)CC)C(C)C)[C@@H](C)CC)c1ccccc1 [GI-20X17, GIKEXKRIVQRIKDFLRNLV] (H-GIKE[Phg]KRIVQRIKDFLRNLV-NH2)
- EC50 [1, 7]: > 40.6 µM
- CC50 at 6 days ([5]; CEM-SS cells): 7.3 µM

Molecule: GRFKRFRKKFKKLFK-NH2 [BMAP-15]
- EC50 [1, 8]: > 49.6 µM
- CC50 at 6 days [5]: > 49.6 µM

Molecule: GIKEFKREFQRIKDFLRNLV-NH2 [GI-20EF]
- EC50 [1, 7]: 1.6 µM
- CC50 at 6 days [5]: 9.9 µM

Molecule: GIKEFKRIVQRIKDFLRNLV-NH2 [GI-20]
- EC50 [1, 7]: 1.08 µM
- CC50 at 6 days [5]: 22.7 µM

Molecule: KRIVQRIKDFLRNLVPRTES [KR-20]
- CC50 at 6 days [5]: > 40.5 µM

Molecule: RLFDKIRQVIRKF-NH2 [Retro-FK13]
- EC50 [1, 7]: > 58.1 µM
- CC50 at 6 days [5]: 33.7 µM

Molecule: IKWKKLLRAAKRIL-NH2 [Peptide D74]
- EC50 [1, 10]: > 57.6 µM
- CC50 [2, 11]: 1.3 µM

Molecule: indolicidin (ILPWKWPWWPWRR; ends and bridges not checked; UniProt P33046 131-143, looked up) [bovine Trp- and Pro-rich cathelicidin peptide]
- concentration required to be effective against HIV [6]: 333 µg/mL

Molecule: RPKHPIKHQGLPQEVLNENLLRF [Isracidin, reference compound]
- EC50 [1, 10]: > 36.2 µM
- CC50 [2, 11]: > 36.2 µM

Molecule: GIFDKLAKEISIW [Peptide B5]
- EC50 ([1]; Table 2, sequence shuffling, CEM-S cells): > 65.8 µM
- CC50 ([2]; read-out: TC50, Table 2, CEM-S cells): > 65.8 µM

Molecule: GRFKRFRKKFKKLFKKIS-NH2 [BMAP-18]
- EC50 [1, 9]: 0.8 µg/mL
- EC50 [1, 8]: 0.35 µM
- CC50 at 6 days [5]: 8.45 µM
